In patent US20200341000A1, “METHOD OF SCREENING COMPOUNDS FOR TREATING CNS DISORDERS” (SAGE THERAPEUTICS, INC., priority 2017, published 2020):
“Also recorded” adds a separate entry of the source.

What was measured:
[1] = test system: tonic current in dentate gyms granule cells (DGGCs); assay: Sustained (metabotropic) enhancement of tonic current in DGGCs after 15 min exposure and washout; assay type: cell-based, mice; conditions: protocol as in FIG. 3; n=6-8 cells
Method: Brain slices were prepared from 3- to 5-week-old male C57 mice. Mice were anesthetized with isoflurane, decapitated, and brains were rapidly removed and submerged in ice-cold cutting solution containing (mM): 126 NaCl, 2.5 KCl, 0.5 CaCl2, 2 MgCl2, 26 NaHCO3, 1.25 NaH2PO4, 10 glucose, 1.5 sodium pyruvate, and 3 kynurenic acid. Coronal 310 μm thick slices were cut with the vibratome VT1000S (Leica Microsystems, St Louis, Mo., USA). The slices were then transferred into incubation chamber filled with prewarmed (31-32° C.) oxygenated artificial cerebro-spinal fluid (ACSF) of the following composition (in mM): 126 NaCl, 2.5 KCl, 2 CaCl2, 2 MgCl2, 26 NaHCO3, 1.25 NaH2PO4, 10 glucose, 1.5 sodium pyruvate, 1 glutamine, 3 kynurenic acid and 0.005 GABA bubbled with 95% O2-5% CO2. Slices were allowed to recover at 32° C. for at least 1 hr before recording. Exogenous GABA was added in an attempt to standardize ambient GABA in the slice and provide an agonist source for newly inserted extrasynaptic GABAARs.
After recovery, a single slice was transferred to a submerged, dual perfusion recording chamber (Warner Instruments, Hamden, Conn., USA) on the stage of an upright microscope (Nikon FN-1) with a 40× water immersion objective equipped with DIC/IR optics. Slices were maintained at 32° C. and gravity-superfused with ACSF solution throughout experimentation and perfused at rate of 2 ml/min with oxygenated (O2/CO2 95/5%) ACSF.
Whole-cell currents were recorded from the dentate gyms granule cells (DGGCs) in 310-μm-thick coronal hippocampal slices. Patch pipettes (5-7MΩ) were pulled from borosilicate glass (World Precision Instruments) and filled with intracellular solution of the composition (in mM) as follows: 140 CsCl, 1 MgCl2, 0.1 EGTA, 10 HEPES, 2 Mg-ATP, 4 NaCl and 0.3 Na-GTP (pH=7.2 with CsOH). A 5 min period for stabilization after obtaining the whole-cell recording conformation (holding potential of −60 mV) was allowed before currents were recorded using an Axopatch 200B amplifier (Molecular Devices), low-pass filtered at 2 kHz, digitized at 20 kHz (Digidata 1440A; Molecular Devices), and stored for offline analysis.
For tonic current measurements, an all-points histogram was plotted for a 10 s period before and during 100 μM picrotoxin application, once the response reached a plateau level. Recordings with unstable baselines were discarded. Fitting the histogram with a Gaussian distribution gave the mean baseline current amplitude and the difference between the amplitudes before and during picrotoxin was considered to be the tonic current. The negative section of the all-points histogram which corresponds to the inward IPSCs was not fitted with a Gaussian distribution (Kretschmannova et al., 2013; Nusser and Mody, 2002). Series resistance and whole-cell capacitance were continually monitored and compensated throughout the course of the experiment. Recordings were eliminated from data analysis if series resistance increased by >20%. Spontaneous inhibitory post-synaptic currents (sIPSCs) were analyzed using the mini-analysis software (version 5.6.4; Synaptosoft, Decatur, Ga.). Minimum threshold detection was set to 3 times the value of baseline noise signal. To assess sIPSC kinetics, the recording trace was visually inspected and only events with a stable baseline, sharp rising phase, and single peak were used to negate artifacts due to event summation. Only recordings with a minimum of 200 events fitting these criteria were analyzed. sIPSCs amplitude, and frequency from each experimental condition was pooled and expressed as mean±SEM. To measure sIPSC decay, 100 consecutive events were averaged and the decay was fitted to a double exponential and the weighted decay constant (tw) was determined. Statistical analysis was performed by using Student t-test (paired and unpaired where appropriate), where p<0.05 is considered significant.

[2] = test system: GABAA receptor β3 subunit S408/9 phosphorylation; assay: Immunoblot of β3 S408/9 phosphorylation in hippocampal slices; assay type: cell-based, mice; conditions: 100 nM
Method: Hippocampi were dissected out of acute slices from 8 to 12 week old C57/B16 mice and lysed with phosphate buffer including: 20 mM Tris-HCl, 150 mM NaCl, 5 mM EDTA, 10 mM NaF, 2 mM Na3VO4, 10 mM pyrophosphate, 0.1% SDS and 1% Triton after drug treatment. The β3 subunit was isolated using immunoprecipitation with β3 antibodies, after correction for protein content and the specific activity of labeling. Results were attained by SDS/PAGE followed by autoradiography (Abramian et al., 2010). For biotinylation experiments hippocampi were dissected out of acute slices from 8 to 12 week old C57/B16 mice and incubated in artificial cerebrospinal fluid (ACSF) described above at 30° C. for 1 h for recovery before experimentation. Slices were then placed on ice and incubated for 30 min with 1 mg/mL NHS-SS-biotin (Pierce). Excess biotin was removed by a 50 mM glycine quenching buffer, followed by washing of slices three times in ice-cold ACSF. The tissue was snap frozen on dry ice for 5 min, thawed at 4° C. and lysed. The lysates were solubilized with 2% Triton at 4° C. on a rotating wheel for 1 h. The insoluble material was removed by centrifugation, and 350-500 μg of protein lysate were incubated with NeutrAvidin beads (Pierce) for 18-24 h at 4° C. Bound material was eluted with sample buffer and subjected to SDS/PAGE and then immunoblotted with the indicated antibodies. Blots were then quantified using the CCD-based ChemiDoc XRS ? system. Antibodies against the β3 subunit and the phospho-β3 antibody were generated and verified by the laboratory of S.J.M. (Vien et al., 2015).
To produce antibodies specific for phosphorylated S443, rabbits were injected with a synthetic peptide corresponding to residues […] of the murine α4 subunit in which the serine residue corresponding to S443 was chemically phosphorylated; […]. Hippocampal slices were treated with vehicle (Con), or SGE-516 for 20 min. Slices were immunoblotted with pS408/9, β3, or actin antibodies. The ratio of pS408/9/β3 immunoreactivity was then normalized to control slices (100%=the line).
Hippocampal slices were treated with 100 nM ALLO or P4 (progesterone), and S408/9 phosphorylation was then determined as detailed above, n=4 slices (FIG. 18D). Hippocampal slices were treated with 100 nM ORG (FIG. 18E). S408/9 phosphorylation was examined using immunoblotting.

[3] = test system: GABA-evoked currents in GT1-7 cells; assay: Patch-clamp of GABA-induced currents in GT1-7 cells, compound in the pipette electrolyte; assay type: cell-based; conditions: 100 nM in electrolyte, GABA EC20, 20 min time course
Method: Patch-clamp recordings were made from GT1-7 cells. The magnitude of the GABA-induced currents (IGABA) at EC20 agonists concentration were then measured, in the presence of control electrolyte or that supplemented with 100 nM ALLO, or 100 nM ORG OD 02-0 over a time course of 20 min.

[4] = target: T1, GABAARs composed of α4β3 subunits (Homo sapiens, UniProt P28472+P48169); assay: Acute modulation of GABA-induced currents in HEK-293 cells; assay type: cell-based; design: dose or concentration left out as unconfirmed; conditions: rapidly applied with GABA
T1 construct: expressed in transfected cells; host or cells: HEK-293
T1 sequence (P48169 36-554): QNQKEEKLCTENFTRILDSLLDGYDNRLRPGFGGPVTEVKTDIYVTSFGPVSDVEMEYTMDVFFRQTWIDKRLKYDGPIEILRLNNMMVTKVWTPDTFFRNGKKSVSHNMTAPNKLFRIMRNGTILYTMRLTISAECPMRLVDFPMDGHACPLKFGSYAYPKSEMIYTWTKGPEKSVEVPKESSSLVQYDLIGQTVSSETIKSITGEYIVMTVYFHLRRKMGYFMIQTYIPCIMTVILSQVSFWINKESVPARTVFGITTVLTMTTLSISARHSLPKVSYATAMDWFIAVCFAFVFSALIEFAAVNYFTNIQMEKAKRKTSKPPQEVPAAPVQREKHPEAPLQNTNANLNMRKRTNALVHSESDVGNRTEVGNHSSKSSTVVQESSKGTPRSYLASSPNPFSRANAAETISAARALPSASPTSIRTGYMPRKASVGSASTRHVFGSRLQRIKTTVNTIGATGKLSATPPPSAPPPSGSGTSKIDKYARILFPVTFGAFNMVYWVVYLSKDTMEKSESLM
T1 sequence (P28472 26-473): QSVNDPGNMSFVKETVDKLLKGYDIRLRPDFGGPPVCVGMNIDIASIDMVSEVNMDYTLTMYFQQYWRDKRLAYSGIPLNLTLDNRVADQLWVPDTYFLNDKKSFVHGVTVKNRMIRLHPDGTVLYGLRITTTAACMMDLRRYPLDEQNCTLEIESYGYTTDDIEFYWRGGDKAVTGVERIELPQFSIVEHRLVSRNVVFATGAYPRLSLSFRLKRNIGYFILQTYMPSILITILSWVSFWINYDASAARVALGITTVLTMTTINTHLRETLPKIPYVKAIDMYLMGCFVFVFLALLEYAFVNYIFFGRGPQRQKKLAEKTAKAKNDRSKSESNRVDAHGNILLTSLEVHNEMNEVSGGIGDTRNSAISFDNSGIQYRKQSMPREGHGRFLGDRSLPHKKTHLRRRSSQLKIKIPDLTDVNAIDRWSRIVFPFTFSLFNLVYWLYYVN

C=C[C@]12CCC(=O)C=C1CC[C@H]1[C@@H]3CC[C@H](C(C)=O)[C@@]3(C)CC[C@@H]12 [ORG OD 02-0] was tested, and the “amplitude and density of GABAergic tonic current at varying doses” value [1] was “dosage-dependent effect; also recorded: dosage dependent effect”, the “S408/9 phosphorylation in hippocampal slices” value [2] was “regulated” and the “GABA-evoked currents (IGABA) over time” value [3] was “sustained increases”. The “acute modulation of GABA-evoked current (IGABA)” value [4] was “did not acutely modulate; also recorded: does not acutely modulate”.
